Results reported in patent US7851637B2, “Compounds and methods for inhibiting the interaction of BCL proteins with binding partners” (Infinity Pharmaceuticals, Inc., priority 2004, dated 2010).
Read-outs that look alike come from different tables or passages of the source.

Experiments:
Bcl-2 = Bcl-2 (Homo sapiens, UniProt P10415); experiment: Bcl-2 binding affinity analysis (fluorescence polarization binding assay)
Summary of the method: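 Binding to human Bcl-2 quantified in vitro by a fluorescence polarization assay.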

Bcl-xL = Bcl-xL (Homo sapiens, UniProt Q07817); experiment: Bcl-xL binding affinity analysis (fluorescence polarization binding assay); parameters: scale not given here
Sequence of Bcl-xL (Q07817 whole entry): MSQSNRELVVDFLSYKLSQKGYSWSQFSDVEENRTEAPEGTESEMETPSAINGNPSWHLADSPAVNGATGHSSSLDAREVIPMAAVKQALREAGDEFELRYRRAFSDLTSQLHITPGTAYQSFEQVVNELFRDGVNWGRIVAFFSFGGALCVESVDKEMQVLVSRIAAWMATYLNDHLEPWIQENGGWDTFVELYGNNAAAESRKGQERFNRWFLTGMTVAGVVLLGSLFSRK
Summary of the method: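 In vitro fluorescence polarization binding assay measuring compound binding to human Bcl-xL.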

[1] = system: RL Human Follicular Lymphoma Cell Line; experiment: Alamar blue cytotoxicity assay in RL cells; format: cell-based; conditions: 72 h incubation, read-out: Bcl RL Alamar Blue IC50
Summary of the method: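 Compounds tested at 29 uM to 0.013 uM final (0.3% DMSO) on 30,000 RL cells per well. After 72 h at 37 C, 5% CO2, viability read with Alamar blue.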

[2] = system: Human Pancreatic Cancer Cell Line Panc1; experiment: Cell death assay (propidium iodide/Hoechst) in Panc1 cells with or without camptothecin; format: cell-based; conditions: 72 hours, % cell death by propidium iodide/Hoechst
Summary of the method: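 Panc1 cells, 10,000/well, exposed 72 h at 37 C to compound (29 uM to 0.13 uM, 0.3% DMSO) with or without 3 uM camptothecin. Propidium iodide and Hoechst staining imaged by fluorescence microscopy; % cell death = PI-stained/Hoechst-stained cells × 100.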

[3] = Homo sapiens, PANC-1, without camptothecin, read-out: Panc1 − Cpt IC50
[4] = with 3 uM Camptothecin, read-out: Panc1 + Cpt IC50

Sequence of Bcl-2 (P10415 whole entry): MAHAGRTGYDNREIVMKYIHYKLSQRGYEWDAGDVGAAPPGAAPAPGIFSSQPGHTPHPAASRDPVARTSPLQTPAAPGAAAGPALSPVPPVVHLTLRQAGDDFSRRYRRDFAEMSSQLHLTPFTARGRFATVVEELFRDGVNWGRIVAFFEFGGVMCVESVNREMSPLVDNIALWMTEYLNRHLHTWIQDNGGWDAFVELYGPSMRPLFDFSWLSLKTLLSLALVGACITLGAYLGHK

| Compound | Ki (Bcl-2) [nM] | Bcl-XL binding affinity Ki (Bcl-xL) | IC50 ([1]; Homo sapiens) [nM] | IC50 [2, 3] [nM] | IC50 [2, 4] [nM] | IC50 ([2]; without camptothecin, read-out: Panc1 − Cpt IC50) [nM] | IC50 [1] [nM] |
| --- | --- | --- | --- | --- | --- | --- | --- |
| COc1c(CN2O[C@@H](CO)[C@@H]([C@H](C)O)[C@H]2C(=O)N[C@H]2C[C@H]3C[C@@H]([C@@H]2C)C3(C)C)cccc1-c1cccc(C(=O)N[C@@H](CC2CCCCC2)CN(C)C)c1 [Compound 487] | < 800 | ♯ | 2000 to 5000 | > 2500 | > 2500 |  |  |
| COc1c(CN2O[C@@H](CO)[C@@H]([C@H](C)O)[C@H]2C(=O)N[C@H]2C[C@H]3C[C@@H]([C@@H]2C)C3(C)C)cccc1-c1cccc(C(=O)N[C@H](CN(C)C)C(C)C)c1 [Compound 488] | < 800 | ♯ | 2000 to 5000 | > 2500 | > 2500 |  |  |
| COc1c(CN2O[C@@H](CO)[C@@H]([C@H](C)O)[C@H]2C(=O)N[C@H]2C[C@H]3C[C@@H]([C@@H]2C)C3(C)C)cccc1-c1cccc(C(=O)N[C@H](Cc2ccccc2)CN(C)C)c1 [Compound 486] | < 800 | ♯ | 2000 to 5000 | > 2500 | > 2500 |  |  |
| COc1c(CN2O[C@@H](CO)[C@@H]([C@H](C)O)[C@H]2C(=O)N[C@H]2C[C@H]3C[C@@H]([C@@H]2C)C3(C)C)cccc1-c1cccc(C(=O)N[C@@H](CN(C)C)C(C)C)c1 [Compound 484] | < 800 | ♯ | 2000 to 5000 | > 2500 | > 2500 |  |  |
| CC(O)C1C(CO)ON(Cc2cccc(CN(CCN(C)C)CC3CCCC3)c2)C1C(=O)NC1CC2CC(C1C)C2(C)C (stereo not shown) [Compound 363] | < 800 | ♯ | > 5000 | > 2500 | > 2500 |  |  |
| Cc1cccc(CN(CCN(C)C)Cc2cccc(CN3OC(CO)C(C(C)O)C3C(=O)NC3CC4CC(C3C)C4(C)C)c2)c1 (stereo not shown) [Compound 399] | < 800 | ♯ | 2000 to 5000 | > 2500 | > 2500 |  |  |
| CC(O)C1C(CO)ON(Cc2cccc(CN(Cc3ccccc3)C(CN(C)C)c3ccccc3)c2)C1C(=O)NC1CC2CC(C1C)C2(C)C (stereo not shown) [Compound 418] | < 800 | ♯ | 2000 to 5000 | 1800 to 2500 | 1800 to 2500 |  |  |
| CC(O)C1C(CO)ON(Cc2cccc(CNC(CC3CCCCCC3)CN(C)C)c2)C1C(=O)NC1CC2CC(C1C)C2(C)C (stereo not shown) [Compound 472] | < 800 | ♯ | 2000 to 5000 | > 2500 | > 2500 |  |  |
| CC(C)CC(CN(C)C)N(Cc1cccc(CN2OC(CO)C(C(C)O)C2C(=O)NC2CC3CC(C2C)C3(C)C)c1)Cc1c(F)cccc1C(F)(F)F (stereo not shown) [Compound 339] | < 800 | ♯ | < 2000 | > 2500 | > 2500 |  |  |
| CC(O)C1C(CO)ON(Cc2cccc(CN(CCN(C)C)CC3CC3)c2)C1C(=O)NC1CC2CC(C1C)C2(C)C (stereo not shown) [Compound 390] | < 800 | ♯ | > 5000 | > 2500 | > 2500 |  |  |
| CC(O)C1C(CO)ON(Cc2cccc(CN(CCN(C)C)Cc3ccccc3C(F)(F)F)c2)C1C(=O)NC1CC2CC(C1C)C2(C)C (stereo not shown) [Compound 357] | < 800 | ♯ | 2000 to 5000 | > 2500 | > 2500 |  |  |
| CC(C)C[C@@H](CN(C)C)N(Cc1cccc(CN2O[C@@H](CO)C([C@H](C)O)[C@H]2C(=O)N[C@H]2C[C@H]3C[C@@H]([C@@H]2C)C3(C)C)c1)Cc1ccccc1O (stereo partly shown) [Compound 300] | < 800 | ♯ | < 2000 | > 2500 | 1800 to 2500 |  |  |
| CC(O)C1C(CO)ON(Cc2cccc(CN(Cc3ccccc3)C(CN(C)C)CC(C)(C)C)c2)C1C(=O)NC1CC2CC(C1C)C2(C)C (stereo not shown) [Compound 414] | < 800 | ♯ | 2000 to 5000 | > 2500 | 1800 to 2500 |  |  |
| CC(O)C1C(CO)ON(Cc2cccc(CN(Cc3ccccc3)C(C)CN(C)C)c2)C1C(=O)NC1CC2CC(C1C)C2(C)C (stereo not shown) [Compound 431] | < 800 | ♯ | > 5000 | > 2500 | > 2500 |  |  |
| CC(O)C1C(CO)ON(Cc2cccc(CNC(CC3CCCCC3)CN(C)C)c2)C1C(=O)NC1CC2CC(C1C)C2(C)C (stereo not shown) [Compound 444] | < 800 | ♯ | 2000 to 5000 | > 2500 | > 2500 |  |  |
| CC(C)CC(CN(C)C)N(Cc1cccc(CN2OC(CO)C(C(C)O)C2C(=O)NC2CC3CC(C2C)C3(C)C)c1)Cc1ccccc1Cl (stereo not shown) [Compound 313] | < 800 | ♯ | < 2000 | 1300 to 1800 | 1300 to 1800 |  |  |
| CC(C)CC(CN(C)C)N(Cc1ccccc1)Cc1cccc(CN2OC(CO)C(C(C)O)C2C(=O)NC2CC3CC(C2C)C3(C)C)c1 (stereo not shown) [Compound 435] | < 800 | ♯ | 2000 to 5000 |  | > 2500 | > 2500 |  |
| CC(O)C1C(CO)ON(Cc2cccc(CN(CCN(C)C)Cc3cccc(-c4ccccc4)c3)c2)C1C(=O)NC1CC2CC(C1C)C2(C)C (stereo not shown) [Compound 402] | < 800 | ♯ | < 2000 | > 2500 | > 2500 |  |  |
| CC(C)CC(CN(C)C)N(Cc1cccc(CN2OC(CO)C(C(C)O)C2C(=O)NC2CC3CC(C2C)C3(C)C)c1)Cc1ccccc1OC(F)(F)F (stereo not shown) [Compound 320] | < 800 | ♯ | < 2000 | > 2500 | 1800 to 2500 |  |  |
| CC(O)C1C(CO)ON(Cc2cccc(CN(CCN(C)C)Cc3cccnc3)c2)C1C(=O)NC1CC2CC(C1C)C2(C)C (stereo not shown) [Compound 393] | < 800 | ♯ | > 5000 | > 2500 | > 2500 |  |  |
| CC(O)C1C(CO)ON(Cc2cccc(CN(CCN(C)C)Cc3ccccc3I)c2)C1C(=O)NC1CC2CC(C1C)C2(C)C (stereo not shown) [Compound 394] | < 800 | ♯ | < 2000 | > 2500 | > 2500 |  |  |
| C[C@@H]1[C@@H](NC(=O)[C@@H]2C([C@H](C)O)[C@H](CO)ON2Cc2cccc(CN(CCN(C)C)Cc3ccccc3Cl)c2)C[C@H]2C[C@@H]1C2(C)C (stereo partly shown) [Compound 346] | < 800 | ♯ | 2000 to 5000 | > 2500 | > 2500 |  |  |
| CC(C)CC(CN(C)C)N(Cc1ccccc1)Cc1cccc(CN2OC(CO)C(C(C)O)C2C(=O)NC2CC3CC(C2C)C3(C)C)c1 (stereo not shown) [Compound 311] | < 800 | ♯ |  | > 2500 | 1800 to 2500 |  | 2000 to 5000 |
| CC(O)C1C(CO)ON(Cc2cccc(CN(CCN(C)C)Cc3ccc([N+](=O)[O-])cc3)c2)C1C(=O)NC1CC2CC(C1C)C2(C)C (stereo not shown) [Compound 396] | < 800 | ♯ | > 5000 | > 2500 | > 2500 |  |  |
| CC(O)C1C(CO)ON(Cc2cccc(CN3Cc4ccccc4C3CN(C)C)c2)C1C(=O)NC1CC2CC(C1C)C2(C)C (stereo not shown) [Compound 470] | < 800 | ♯ | > 5000 | > 2500 | > 2500 |  |  |
| CC(O)C1C(CO)ON(Cc2cccc(C(=O)NC(CCc3ccccc3)CN(C)C)c2)C1C(=O)NC1CC2CC(C1C)C2(C)C (stereo not shown) [Compound 498] | < 800 | ♯ | > 5000 | > 2500 | > 2500 |  |  |
